Values belong to the compound of their own block, whether it stands above or below them.
Assays:
[1] = DPPH radical scavenging test; details: 30 min, room temperature
Method: (§1) The β-carotene bleaching test was performed to investigate the ability of the extract to protect from lipid peroxidation. All test protocols were previously reported. Briefly, in the DPPH test, a solution of DPPH was mixed with extract at different concentrations (10-1000 μg/mL). After that, the mixture was incubated at room temperature for 30 min. The absorbance was read at 517 nm. In the ABTS test, a solution of ABTS radical cation was prepared and, after 12 h, was diluted with ethanol to reach an absorbance of 0.70 at 734 nm. The stabilized ABTS^+ solution was added to extracts at different concentrations (1-400 μg/mL), and the mixture was left to react at room temperature for 6 min. After that, the absorbance was read at 734 nm. Ascorbic acid was employed as a positive control in both the ABTS and DPPH assays. In the FRAP test, a mixture of tripyridyltriazine (TPTZ) solution, FeCl3, and acetate buffer was added to the sample at a concentration of 2.5 mg/mL. After 30 min of incubation at room temperature, the absorbance was measured at 595 nm. Butylated hydroxytoluene (BHT) was used as a positive control. The protection from lipid peroxidation was studied by using the β-carotene bleaching test. […] The mixture was left to react for 30 and 60 min at 45 °C, and the absorbance was read at 470 nm. Propyl gallate was used as a positive control.

[2] = ABTS radical scavenging test; details: 6 min, room temperature
Method: as §1

[3] = Ferric Reducing Ability Power (FRAP) test; details: at 2.5 mg/mL
Method: as §1

[4] = β-carotene bleaching test (protection from lipid peroxidation)
Method: as §1

- DPPH Test IC50 [1]: 5.0 ± 0.8 µg/mL
- ABTS Test IC50 [2]: 1.7 ± 0.06 µg/mL
SMILES: O=C1O[C@H]([C@@H](O)CO)C(O)=C1O [Ascorbic acid, ascorbic acid]

SMILES: Cc1cc(C(C)(C)C)c(O)c(C(C)(C)C)c1 [BHT, butylated hydroxytoluene]
- FRAP Test [3]: 63.27 ± 4.35 μM Fe(II)/g

- β-Carotene Bleaching Test IC50 ([4]; 30 min): 1.04 ± 0.04 µg/mL
- β-Carotene Bleaching Test IC50 ([4]; 60 min): 0.09 ± 0.00 µg/mL
SMILES: CCCOC(=O)c1cc(O)c(O)c(O)c1 [Propyl gallate, propyl gallate]
